Values joined by “and” are separate entries in the source; they are usually repeats but may differ in a detail not shown here. Equal values may be shown once. Read-outs that look alike come from different tables or passages of the source.
Assays:
lung cancer cells (A549) = test: MTS in vitro cytotoxicity assay, A549; format: cell-based; details: mean ± SD n = 6
Description: (§1) The absorbance is directly proportional to cell viability.

[1] = tested on: normal kidney cells (BHK21); test: MTS in vitro cytotoxicity assay, BHK21; format: cell-based; details: mean ± SD n = 6
Description: as §1

[2] = MTS in vitro cytotoxicity assay, HEK293; format: cell-based; details: MTS assay, 96 h exposure, mean ± SD n = 6
Description: as §1

Lymphoma cells (MT4) = test: MTS in vitro cytotoxicity assay, MT4; format: cell-based; details: 96 h exposure, mean ± SD n = 6
Description: as §1

[3] = tested on: cervical cancer cells (Hela); test: MTS in vitro cytotoxicity assay, Hela; format: cell-based; details: 96 h exposure, mean ± SD n = 6
Description: as §1

[4] = not given; remark: listed apart in the source
[5] = qualitative, aqueous model system / PBS
[6] = tested on: cancer cells (HeLa, HEK293, A549, MT4); details: summary over the selected cancer cell lines, MTS assay; for EC50: read-out: EC50 against the cancer cells
Description: (§2) An MTS (3-(4,5-dimethylthiazol-2-yl)-5-(3-carboxymethoxy-phenyl)-2-(4-sulfophenyl)-2H-tetrazolium) in vitro cytotoxicity assay was conducted to determine change in cell viability using a colour change. The MTS compound (yellow) is metabolised by viable cells to form a dark purple coloured compound, visible through UV-Vis spectroscopy at 490 nm. The absorbance is directly proportional to cell viability. Samples were tested across three plates in duplicate (n = 6), and the average value was reported.
(§3) HeLa (cervical cancer cells), Hek293 (kidney cancer cells), BHK21 (normal kidney cells), MT4 (lymphoma cells) and A549 (lung cancer cells) were grown using standard tissue culture techniques. The cells (1 × 10^5 cells/mL) were incubated in 96-well plates at 37 °C overnight, with the subsequent addition of the supplied compounds, at concentrations (100 µg/mL, 50.0 µg/mL, 25.0 µg/mL, 12.5 µg/mL, 6.25 µg/mL, 3.125 µg/mL and 0 µg/mL). The cells were left to incubate for four days, after which MTS (5 µL) was added to the cells. The absorbance values were measured at 490 nm after 1 h, 2 h and 4 h incubation periods, averaged, and the viability curves were drawn up.

[7] = tested on: all the tested cell lines (Hela, HEK293, BHK21, MT4, A549); details: summary over all tested cell lines, MTS assay
Description: as §2, §3

[8] = tested on: kidney cancer cells (HEK293); test: MTS in vitro cytotoxicity assay, HEK293; format: cell-based; details: EC50 against BHK21 divided by EC50 against HEK293
Description: as §1

[9] = base: NaHCO3 1.0 equiv., PBS pH 7.4, 310 K, 24 h
[10] = base: None, 2.0 equiv. halide abstractor AgBF4 added, PBS pH 7.4, 310 K, 24 h
[11] = base: None, 1 mol% catalyst, 2.0 equiv. sodium formate, PBS pH 7.4, 310 K, 24 h
[12] = percentage of lactate formed, base: NaHCO3 1.0 equiv., PBS pH 7.4, 310 K, 24 h
[13] = percentage of lactate formed, base: None, 2.0 equiv. AgBF4 added, PBS pH 7.4, 310 K, 24 h
[14] = percentage of lactate formed, base: None, PBS pH 7.4, 310 K, 24 h
[15] = Homo sapiens, A549, 96 h exposure
[16] = Mesocricetus auratus, BHK-21, 96 h exposure

Structure (SMILES) | EC50 (lung cancer cells (A549); 96 h exposure) [µM] | EC50 ([1]; 96 h exposure) [µM] | EC50 [2] [µM] | EC50 (Lymphoma cells (MT4)) [µM] | EC50 [3] [µM] | EC50 BHK21 ([1]; 96 h exposure) | also measured
CC(=O)OC[C@H]1O[C@@H]([S-])[C@H](OC(C)=O)[C@@H](OC(C)=O)[C@@H]1OC(C)=O.CCP(CC)CC.[Au+] [Auranofin, reference compound] | 12 ± 2 | < 0.1 | < 0.1 | < 2 | < 2 | – | –
Cc1ccc(C(C)C)cc1.F[B-](F)(F)F.[Cl-].[Ru+2].c1ccc(Cn2cc(-c3ccccn3)nn2)cc1 [Complex C1, [Chlorido(2-(1-benzyl-(3-κN)-1,2,3-triazol-4-yl)-(2′-κN)-pyridine)(η^6-p-cymene)ruthenium(II)] tetrafluoroborate] | > 500 | 113 ± 17 | > 500 | 37 ± 5 | > 500 | low cytotoxicities | Time with no detectable changes in the 1H NMR spectra (stability) (10% DMSO-d6 in phosphate-buffered D2O (pH 7.4), 37 °C): over 72 h; Selectivity (%) ([4]; pH 7.4): 100% and >99%
Cc1ccc(C(C)C)cc1.[Cl-].[Ru+2].c1ccc(Cn2cc(-c3ccccn3)nn2)cc1.c1ccc([B-](c2ccccc2)(c2ccccc2)c2ccccc2)cc1 [Complex C2, [Chlorido(2-(1-benzyl-(3-κN)-1,2,3-triazol-4-yl)-(2′-κN)-pyridine)(η^6-p-cymene)ruthenium(II)] tetraphenylborate] | 14 ± 4 | 151 ± 0.6 | 11 ± 1.5 | 9 ± 1 | 15 ± 1.7 | low cytotoxicities | Solubility in aqueous model system [5]: poorly soluble; EC50 [6]: 9 to 16 µM and ≤ 16 µM
Cc1ccc(C(C)C)cc1.F[B-](F)(F)F.[Cl-].[Os+2].c1ccc(Cn2cc(-c3ccccn3)nn2)cc1 [Complex C3, [Chlorido(2-(1-benzyl-(3-κN)-1,2,3-triazol-4-yl)-(2′-κN)-pyridine)(η^6-p-cymene)osmium(II)] tetrafluoroborate] | > 500 | > 500 | > 500 | 133 ± 12 | > 500 | – | Conversion (%) [4, 9]: 0.1 ± 0.03%; Conversion (%) [4, 10]: 3 ± 1%; Conversion (%) [4, 11]: 1 ± 0.3%; Selectivity (%) [4, 12]: 100%; Selectivity (%) [4, 13]: >99%; Selectivity (%) [4, 14]: 100%
Cc1c(C)c(C)[c-](C)c1C.F[B-](F)(F)F.[Cl-].[Rh+3].c1ccc(Cn2cc(-c3ccccn3)nn2)cc1 [Complex C4, [Chlorido(2-(1-benzyl-(3-κN)-1,2,3-triazol-4-yl)-(2′-κN)-pyridine)(η^6-pentamethylcypentadiene)rhodium(III)] tetrafluoroborate] | > 500 | > 500 | > 500 | 60 ± 8 | ≥ 300 | – | –
Cc1c(C)c(C)[c-](C)c1C.F[B-](F)(F)F.[Cl-].[Ir+3].c1ccc(Cn2cc(-c3ccccn3)nn2)cc1 [Complex C5, [Chlorido(2-(1-benzyl-(3-κN)-1,2,3-triazol-4-yl)-(2′-κN)-pyridine)(η^6-pentamethylcypentadiene)iridium(III)] tetrafluoroborate] | > 500 | 55 ± 1 | > 500 | 67 ± 6 | > 500 | low cytotoxicities | Time with no detectable changes in the 1H NMR spectra (stability) (pH 7.4): over 72 h; Conversion (%) [4, 9]: 0.1 ± 0.02%; TON [4, 9]: ≤0.1; Conversion (%) [4, 10]: 20 ± 3%; TON [4, 10]: 20; Conversion (%) [4, 11]: 14 ± 2%; TON [4, 11]: 14; Selectivity (%) [4, 12]: 100%; Selectivity (%) [4, 13]: >99%; Selectivity (%) [4, 14]: 100%; Conversion of pyruvate to lactate ([4]; summary, base condition not specified): < 14%
Cc1ccc(C(C)C)cc1.F[B-](F)(F)F.[Cl-].[Ru+2].c1ccc(Cn2cc(-c3ccccn3)nn2)nc1 [Complex C6, [Chlorido(2-((4-(pyridine-2-yl)-(3-κN)-1,2,3-trizol-1-yl)methyl)-(2′-κN)-pyridine)(η^6-p-cymene)ruthenium(II)] tetrafluoroborate] | – | – | > 500 | 158 ± 44.2 | 388 ± 70.9 | N.R. | EC50 A549 (lung cancer cells (A549); 96 h exposure): N.R.; EC50 against the cancer cells [6]: completely inactive against most cancer cells
Cc1ccc(C(C)C)cc1.[Cl-].[Ru+2].c1ccc(Cn2cc(-c3ccccn3)nn2)nc1.c1ccc([B-](c2ccccc2)(c2ccccc2)c2ccccc2)cc1 [Complex C7, [Chlorido(2-((4-(pyridine-2-yl)-(3-κN)-1,2,3-trizol-1-yl)methyl)-(2′-κN)-pyridine)(η^6-p-cymene)ruthenium(II)] tetraphenylborate] | 53 ± 6 | 67 ± 7.3 | 17 ± 4.8 | 20 ± 4.8 | 26 ± 0.8 | – | Solubility in aqueous model system [5]: poorly soluble
Cc1ccc(C(C)C)cc1.F[B-](F)(F)F.[Cl-].[Os+2].c1ccc(Cn2cc(-c3ccccn3)nn2)nc1 [Complex C8, [Chlorido(2-((4-(pyridine-2-yl)-(3-κN)-1,2,3-trizol-1-yl)methyl)-(2′-κN)-pyridine)(η^6-p-cymene)osmium(II)] tetrafluoroborate] | > 500 | > 500 | > 500 | – | – | – | EC50 / activity against all the tested cell lines [7]: not active; EC50 MT4 (Lymphoma cells (MT4)): N.R.; EC50 Hela [3]: N.R.
Cc1ccc(C(C)C)cc1.F[B-](F)(F)F.[Cl-].[Os+2].c1ccc(Cn2cc(-c3ccccn3)nn2)nc1 [Complex C9, [Chlorido(2-((4-(pyridine-2-yl)-(3-κN)-1,2,3-trizol-1-yl)methyl)-(2′-κN)-pyridine)(η^6-p-cymene)osmium(II)] tetrafluoroborate] | > 500 | – | > 400 | – | – | N.R. | EC50 / activity against all the tested cell lines [7]: not active; EC50 MT4 (Lymphoma cells (MT4)): N.R.; EC50 Hela [3]: N.R.
Cc1c(C)c(C)[c-](C)c1C.F[B-](F)(F)F.[Cl-].[Rh+3].c1ccc(Cn2cc(-c3ccccn3)nn2)nc1 [Complex C10, [Chlorido(2-((4-(pyridine-2-yl)-(3-κN)-1,2,3-trizol-1-yl)methyl)-(2′-κN)-pyridine)(η^6-pentamethylcypentadiene)rhodium(III)] tetrafluoroborate] | – | – | > 500 | > 500 | – | N.R. | EC50 A549 (lung cancer cells (A549); 96 h exposure): N.R.; EC50 Hela [3]: N.R.
Cc1c(C)c(C)[c-](C)c1C.F[B-](F)(F)F.[Cl-].[Ir+3].c1ccc(Cn2cc(-c3ccccn3)nn2)nc1 [Complex C11, [Chlorido(2-((4-(pyridine-2-yl)-(3-κN)-1,2,3-trizol-1-yl)methyl)-(2′-κN)-pyridine)(η^6-pentamethylcypentadiene)iridium(III)] tetrafluoroborate] | > 500 | – | > 500 | 111 ± 7 | 2.5 ± 1 | non-toxic and completely inactive and N.R. | Time with no detectable changes in the 1H NMR spectra (stability) (pH 7.4): over 72 h; EC50 [6]: < 5 µM; Conversion (%) [4, 11]: 70 ± 5%
c1ccc(Cn2cc(-c3ccccn3)nn2)cc1 [Complex L1, 2-(1-Benzyl-1H-1,2,3-triazol-4-yl)pyridine] | – | – | – | > 1300 | – | – | EC50 (lung cancer cells (A549); [15]): > 1300 µM; EC50 [1, 16]: > 1300 µM; EC50 ([2]; Homo sapiens, HEK293): > 1300 µM; SI (selectivity index) [8]: ≤1; EC50 ([3]; Homo sapiens, HeLa): 168 ± 31 µM
c1ccc(Cn2cc(-c3ccccn3)nn2)nc1 [Complex L2, 2-((4-(Pyridin-2-yl)-1H-1,2,3-triazol-1-yl)methyl)pyridine] | – | – | – | – | – | – | EC50 (lung cancer cells (A549); [15]): > 1300 µM; EC50 [1, 16]: > 1300 µM; EC50 ([2]; Homo sapiens, HEK293): > 1300 µM; SI (selectivity index) [8]: ≤1; EC50 MT4 (Lymphoma cells (MT4)): N.R.; EC50 ([3]; Homo sapiens, HeLa): 1070 ± 134 µM

From article PMC9000499, “New Triazolyl N^N Bidentate Rh(III), Ir(III), Ru(II) and Os(II) Complexes: Synthesis and Characterization, Probing Possible Relations between Cytotoxicity with Transfer Hydrogenation Efficacy and Interaction with Model Biomolecules” (Molecules, 2022)
